# From US20250388565A1, “ESTROGEN RECEPTOR ALPHA DEGRADERS AND METHODS OF USE THEREOF” (Relay Therapeutics, Inc., priority 2022, published 2025)
# Target: T1, ERα protein (HiBiT-tagged) in ESR1_HiBiT KI MCF7 cells (Homo sapiens, UniProt P03372)
# T1 sequence (P03372 1-595): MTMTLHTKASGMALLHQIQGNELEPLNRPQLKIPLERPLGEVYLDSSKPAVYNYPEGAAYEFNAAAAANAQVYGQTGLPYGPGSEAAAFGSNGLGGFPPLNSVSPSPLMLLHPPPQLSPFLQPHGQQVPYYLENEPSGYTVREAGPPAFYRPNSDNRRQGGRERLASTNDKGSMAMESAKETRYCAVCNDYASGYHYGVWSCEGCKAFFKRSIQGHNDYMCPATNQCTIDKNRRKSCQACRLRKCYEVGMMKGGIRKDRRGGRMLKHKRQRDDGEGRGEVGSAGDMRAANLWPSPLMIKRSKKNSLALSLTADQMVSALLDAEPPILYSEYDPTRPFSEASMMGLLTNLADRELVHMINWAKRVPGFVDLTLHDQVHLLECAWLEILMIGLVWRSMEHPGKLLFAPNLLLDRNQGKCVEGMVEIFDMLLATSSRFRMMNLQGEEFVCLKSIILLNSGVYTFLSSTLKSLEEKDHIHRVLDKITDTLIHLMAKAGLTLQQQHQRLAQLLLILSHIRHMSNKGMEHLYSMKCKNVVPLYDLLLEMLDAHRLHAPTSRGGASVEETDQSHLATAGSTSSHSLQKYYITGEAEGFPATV
# Experiment: Nano Glo HiBiT Lytic Degradation Assay
# Type: cell-based
# Conditions: 6 hours with compound, 14-point dose response 1:3, bell-shape curve fit, half-maximal effect of first Hill model, read-out: MCF7 ESR1 HiBiT - (DC50)
# In short: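 Lytic Nano-Glo HiBiT luminescence quantified ERα remaining after a 6 h, 37° C compound exposure of MCF7 cells carrying endogenous HiBiT-tagged ESR1. Dosing used 14 threefold dilutions from a 10 mM DMSO stock (0.1% DMSO final), run in duplicate. Signals were corrected for cell-free background and expressed relative to DMSO, and DC50 came from a bell-shaped curve fit (first Hill model half-maximum).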
row,SMILES,DC50 [nM]
1,"O=C1CC[C@@H](c2ccc(N3CCC4(CCN(CC5CCN(c6ccc([C@@H]7c8ccc(O)cc8CC[C@@H]7c7ccccc7)cc6)CC5)C4)CC3)cc2)C(=O)N1 (single isomer, unassigned) [Compound I-284]",≥ 10000
2,"O=C1CC[C@H](c2ccc(N3CCC4(CCN(CC5CCN(c6ccc([C@@H]7c8ccc(O)cc8C(F)(F)C[C@@H]7c7ccccc7)cc6)CC5)C4)CC3)cc2)C(=O)N1 (single isomer, unassigned) [Compound I-285]",0.27
3,"O=C1CC[C@@H](c2ccc(N3CCC4(CCN(CC5CCN(c6ccc([C@@H]7c8ccc(O)cc8C(F)(F)C[C@@H]7c7ccccc7)cc6)CC5)C4)CC3)cc2)C(=O)N1 (single isomer, unassigned) [Compound I-286]",91.1
4,"O=C1CCN(c2ccc(N3CC[C@]4(CCN(CC5CCN(c6ccc([C@@H]7c8ccc(O)cc8CC[C@@H]7c7ccccc7)cc6)CC5)C4)C3)cc2)C(=O)N1 (single isomer, unassigned) [Compound I-287]",≥ 10000
5,"O=C1CCN(c2ccc(N3CC[C@@]4(CCN(CC5CCN(c6ccc([C@@H]7c8ccc(O)cc8CC[C@@H]7c7ccccc7)cc6)CC5)C4)C3)cc2)C(=O)N1 (single isomer, unassigned) [Compound I-288]",≥ 10000
6,"O=C1CCN(c2ccc(N3CCC4(CCN(CC5CCN(c6ccc([C@@H]7c8ccc(O)cc8C(F)(F)C[C@@H]7c7ccccc7)cc6)CC5)C4)C3)cc2)C(=O)N1 (single isomer, unassigned) [Compound I-289]",≥ 10000
7,"O=C1CCN(c2ccc(N3CC[C@@]4(CCN(CC5CCN(c6ccc([C@@H]7c8ccc(O)cc8C(F)(F)C[C@@H]7c7ccccc7)cc6)CC5)C4)C3)cc2)C(=O)N1 (single isomer, unassigned) [Compound I-290]",0.22
8,"Cc1cc(N2CCC3(CCN(CC4CCN(c5ccc([C@@H]6c7ccc(O)cc7C(F)(F)C[C@@H]6c6ccccc6)cc5)CC4)C3)CC2)ccc1N1CCC(=O)NC1=O (single isomer, unassigned) [Compound I-294]",0.28
9,"Cn1nc([C@H]2CCC(=O)NC2=O)c2ccc(N3CCN(CC4CCN(c5ccc([C@@H]6c7ccc(O)cc7CC[C@@H]6c6ccccc6)cc5)CC4)CC3)cc21 (single isomer, unassigned) [Compound I-295]",0.84
10,"Cn1nc([C@@H]2CCC(=O)NC2=O)c2ccc(N3CCN(CC4CCN(c5ccc([C@@H]6c7ccc(O)cc7CC[C@@H]6c6ccccc6)cc5)CC4)CC3)cc21 (single isomer, unassigned) [Compound I-296]",1
11,"Cn1nc(C2CCC(=O)NC2=O)c2ccc(N3CCN(CC4CCN(c5ccc([C@@H]6c7ccc(O)cc7C(F)(F)C[C@@H]6c6ccccc6)cc5)CC4)CC3)cc21 (single isomer, unassigned) [Compound I-297]",0.74
12,"Cn1nc(C2CCC(=O)NC2=O)c2ccc(N3CCN(CC4CCN(c5ccc([C@@H]6c7ccc(O)cc7C(F)(F)C[C@@H]6c6ccccc6)cc5)CC4)CC3)cc21 (single isomer, unassigned) [Compound I-298]",1
13,"Cc1ccc([C@H]2CC(F)(F)c3cc(O)ccc3[C@H]2c2ccc(N3CCC(CN4CCN(c5ccc6c(c5)CN([C@H]5CCC(=O)NC5=O)C6=O)CC4)CC3)cc2)cc1 (single isomer, unassigned) [Compound I-320, (S)-3-(5-(4-((1-(4-((1*S, 2*R)-4,4-difluoro-6-hydroxy-2-(p-tolyl)-1,2,3,4-tetrahydronaphthalen-1-yl)phenyl)piperidin-4-yl)methyl)piperazin-1-yl)-1-oxoisoindolin-2-yl)piperidine-2,6-dione]",0.006
14,"Cc1cc(F)c([C@H]2CC(F)(F)c3cc(O)ccc3[C@H]2c2ccc(N3CCC(CN4CCN(c5ccc6c(c5)CN([C@H]5CCC(=O)NC5=O)C6=O)CC4)CC3)cc2)cc1F (single isomer, unassigned) [Compound I-324]",0.56
15,"Cc1cc(F)c([C@@H]2CC(F)(F)c3cc(O)ccc3[C@@H]2c2ccc(N3CCC(CN4CCN(c5ccc6c(c5)CN([C@H]5CCC(=O)NC5=O)C6=O)CC4)CC3)cc2)cc1F (single isomer, unassigned) [Compound I-325]",11
16,"C[C@H]1C[C@@H](c2ccccc2)[C@@H](c2ccc(N3CCC(CN4CCN(c5ccc6c(c5)CN([C@H]5CCC(=O)NC5=O)C6=O)CC4)CC3)cc2)c2ccc(O)cc21 (single isomer, unassigned) [Compound I-331]",≥ 10000

row,SMILES,DC50 [nM]
1,"C[C@@H]1C[C@@H](c2ccccc2)[C@@H](c2ccc(N3CCC(CN4CCN(c5ccc6c(c5)CN([C@H]5CCC(=O)NC5=O)C6=O)CC4)CC3)cc2)c2ccc(O)cc21 (single isomer, unassigned) [Compound I-332]",≥ 10000
2,"C[C@]1(c2ccccc2)OCc2cc(O)ccc2[C@@H]1c1ccc(N2CCC(CN3CCN(c4ccc5c(c4)CN([C@H]4CCC(=O)NC4=O)C5=O)CC3)CC2)cc1 (single isomer, unassigned) [Compound I-345, (S)-3-(5-(4-((1-(4-((3*S,4*S)-7-hydroxy-3-methyl-3-phenylisochroman-4-yl)phenyl)piperidin-4-yl)methyl)piperazin-1-yl)-1-oxoisoindolin-2-yl)piperidine-2,6-dione]",5
3,"Cc1ccc([C@H]2OCc3cc(O)ccc3[C@H]2c2ccc(N3CCC(CN4CCN(c5ccc6c(c5)CN([C@H]5CCC(=O)NC5=O)C6=O)CC4)CC3)cc2)cc1F (single isomer, unassigned) [Compound I-355]",0.27
4,"Cc1ccc([C@@H]2OCc3cc(O)ccc3[C@@H]2c2ccc(N3CCC(CN4CCN(c5ccc6c(c5)CN([C@H]5CCC(=O)NC5=O)C6=O)CC4)CC3)cc2)cc1F (single isomer, unassigned) [Compound I-356]",54
5,"Cc1ccc(F)cc1[C@H]1OCc2cc(O)ccc2[C@H]1c1ccc(N2CCC(CN3CCN(c4ccc5c(c4)CN([C@H]4CCC(=O)NC4=O)C5=O)CC3)CC2)cc1 (single isomer, unassigned) [Compound I-357]",0.51
6,"O=C1CC[C@H](N2Cc3cc(N4CCN(CC5CCN(c6ccc([C@H]7c8ccc(O)cc8CO[C@@H]7c7ccc(O)cc7)cc6)CC5)CC4)ccc3C2=O)C(=O)N1 (single isomer, unassigned) [Compound I-359, (S)-3-(5-(4-((1-(4-((3R*,4R*)-7-hydroxy-3-(4-hydroxyphenyl)isochroman-4-yl)phenyl)piperidin-4-yl)methyl)piperazin-1-yl)-1-oxoisoindolin-2-yl)piperidine-2,6-dione]",0.16
7,"O=C1CC[C@H](N2Cc3cc(N4CCN(CC5CCN(c6ccc([C@H]7c8ccc(O)cc8CO[C@H]7c7ccc(O)cc7)cc6)CC5)CC4)ccc3C2=O)C(=O)N1 (single isomer, unassigned) [Compound I-360]",0.38
8,"O=C1CC[C@H](N2Cc3cc(N4CCN(CC5CCN(c6ccc([C@@H]7c8ccc(O)cc8CO[C@@H]7c7ccc8c(c7)CC8)cc6)CC5)CC4)ccc3C2=O)C(=O)N1 (single isomer, unassigned) [Compound I-363]",0.17
9,"O=C1CC[C@H](N2Cc3cc(N4CCN(CC5CCN(c6ccc([C@H]7c8ccc(O)cc8CO[C@H]7c7ccc8c(c7)CC8)cc6)CC5)CC4)ccc3C2=O)C(=O)N1 (single isomer, unassigned) [Compound I-364]",≥ 10000
10,"C[C@H]1O[C@H](c2ccccc2)[C@H](c2ccc(N3CCC(CN4CCN(c5ccc6c(c5)CN([C@H]5CCC(=O)NC5=O)C6=O)CC4)CC3)cc2)c2ccc(O)cc21 (single isomer, unassigned) [Compound I-367]",0.24
11,"C[C@@H]1O[C@@H](c2ccccc2)[C@@H](c2ccc(N3CCC(CN4CCN(c5ccc6c(c5)CN([C@H]5CCC(=O)NC5=O)C6=O)CC4)CC3)cc2)c2ccc(O)cc21 (single isomer, unassigned) [Compound I-368]",3
12,"Cc1c(F)cccc1[C@H]1OCc2cc(O)ccc2[C@H]1c1ccc(N2CCC(CN3CCN(c4ccc5c(c4)CN([C@H]4CCC(=O)NC4=O)C5=O)CC3)CC2)cc1 (single isomer, unassigned) [Compound I-379]",0.37
13,"Cc1c(F)cccc1[C@@H]1OCc2cc(O)ccc2[C@@H]1c1ccc(N2CCC(CN3CCN(c4ccc5c(c4)CN([C@H]4CCC(=O)NC4=O)C5=O)CC3)CC2)cc1 (single isomer, unassigned) [Compound I-380]",77
14,"O=C1CC[C@H](N2Cc3cc(N4CCN(CC5CCN(c6ccc([C@@H]7c8ccc(O)cc8CO[C@@H]7c7ccccc7)cc6F)CC5)CC4)ccc3C2=O)C(=O)N1 (single isomer, unassigned) [Compound I-381]",0.16
15,"O=C1CC[C@H](N2Cc3cc(N4CCN(CC5CCN(c6ccc([C@H]7c8ccc(O)cc8CO[C@H]7c7ccccc7)cc6F)CC5)CC4)ccc3C2=O)C(=O)N1 (single isomer, unassigned) [Compound I-382]",2
16,"Cn1c(=O)n([C@H]2CCC(=O)NC2=O)c2ccc(N3CCN(CC4CCN(c5ccc([C@@H]6c7ccc(O)cc7CO[C@@H]6c6ccccc6)cc5)CC4)CC3)cc21 (single isomer, unassigned) [Compound I-387]",0.16
